Eleven compounds from US5212189A, “Thiadiazole or oxadiazole analogs of fenamic acids containing substituted hydroxamate side chains as antiinflammatory agents” (Warner-Lambert Company, priority 1991, dated 1993) can be followed below.

Read-outs that look alike come from different tables or passages of the source. Where only a bound is given, the exact number is not on record here.

For one test, the target named is T1, cyclooxygenase (Rattus norvegicus, UniProt Q63921).
T1 construct: host or cells: RBL-1 (rat basophilic leukemia)
T1 sequence (Q63921 27-602): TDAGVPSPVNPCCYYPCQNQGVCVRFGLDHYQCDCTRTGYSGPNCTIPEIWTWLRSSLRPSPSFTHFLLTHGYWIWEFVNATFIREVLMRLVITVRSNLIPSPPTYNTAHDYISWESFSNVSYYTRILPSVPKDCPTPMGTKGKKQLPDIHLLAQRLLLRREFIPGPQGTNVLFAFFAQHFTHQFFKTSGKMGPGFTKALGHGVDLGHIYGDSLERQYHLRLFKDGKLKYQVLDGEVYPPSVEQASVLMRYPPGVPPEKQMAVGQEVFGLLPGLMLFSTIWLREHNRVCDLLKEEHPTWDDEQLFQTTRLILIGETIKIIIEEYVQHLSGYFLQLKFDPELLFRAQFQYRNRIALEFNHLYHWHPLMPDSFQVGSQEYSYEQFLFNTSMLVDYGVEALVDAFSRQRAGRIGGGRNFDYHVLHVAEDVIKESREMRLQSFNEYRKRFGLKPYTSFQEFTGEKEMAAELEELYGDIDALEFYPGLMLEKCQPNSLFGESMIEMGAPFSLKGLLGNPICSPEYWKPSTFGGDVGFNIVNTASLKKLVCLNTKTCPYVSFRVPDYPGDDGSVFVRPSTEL
The experiment in a line: ARBC whole cell cyclooxygenase assay: inhibition of PGF2α formation in A23187-stimulated RBL-1 cells. The format is cell-based. As to conditions: RBL-1 whole cells; for IC50: RIA of PGF2α. As for the experimental part: (§1) ARBL/ARBC WHOLE CELL 5-LIPOXYGENASE AND CYCLOOXYGENASE ASSAYS
(§2) The rat basophilic leukemia cell line (RBL-1) was obtained from the American Type Culture Collection (Rockville, MD).
(§3) Radioimmunoassay (RIA) kits of LTB4 and PGF2α were obtained from Amersham (Arlington Heights, Ill.) and Seragen (Boston, Mass.), respectively.
(§4) RBL-1 cells are grown in suspension culture in Eagle's minimum essential medium supplemented with 12% fetal bovine serum at 37° C. in an incubator supplied with air 5% carbon dioxide. Cells are harvested by centrifugation. They are washed with cold phosphate-buffered saline, pH 7.4 (PBS; NaCl, 7.1 g; Na2 HPO4, 1.15 g; KH2 PO4, 0.2 g; and KCl, 0.2 g/L). Cells are finally suspended in PBS containing 1.0 mM calcium at a density of 2 × 10^6 cells/mL Cells are incubated and without test agent (in DMSO) (1% DMSO is without effect on arachidonic acid metabolism) for 10 minutes at room temperature. Calcium ionophore A23187 (5 μM) is added and cells are incubated for 7 minutes at 37° C. The reaction is stopped by chilling the tubes on ice for 10 minutes. Cells are separated by centrifugation and the supernatant is stored at -20° C. Aliquots (100 μL) are analyzed for LTB4 and PGF2α using radioimmunoassay kits as provided by the supplier.
(§5) Table 1 contains biochemical data for compounds of Formula I obtained from this whole cell assay as amount of inhibition at 10 μM or IC50 s which are calculated as the concentration of a test compound in micromoles (μM) causing 50% inhibition of LTB4 or PGF2α formation.

The next test deals with T2, 5-lipoxygenase (Rattus norvegicus, UniProt P12527).
T2 construct: host or cells: RBL-1 (rat basophilic leukemia)
T2 sequence (P12527 1-673): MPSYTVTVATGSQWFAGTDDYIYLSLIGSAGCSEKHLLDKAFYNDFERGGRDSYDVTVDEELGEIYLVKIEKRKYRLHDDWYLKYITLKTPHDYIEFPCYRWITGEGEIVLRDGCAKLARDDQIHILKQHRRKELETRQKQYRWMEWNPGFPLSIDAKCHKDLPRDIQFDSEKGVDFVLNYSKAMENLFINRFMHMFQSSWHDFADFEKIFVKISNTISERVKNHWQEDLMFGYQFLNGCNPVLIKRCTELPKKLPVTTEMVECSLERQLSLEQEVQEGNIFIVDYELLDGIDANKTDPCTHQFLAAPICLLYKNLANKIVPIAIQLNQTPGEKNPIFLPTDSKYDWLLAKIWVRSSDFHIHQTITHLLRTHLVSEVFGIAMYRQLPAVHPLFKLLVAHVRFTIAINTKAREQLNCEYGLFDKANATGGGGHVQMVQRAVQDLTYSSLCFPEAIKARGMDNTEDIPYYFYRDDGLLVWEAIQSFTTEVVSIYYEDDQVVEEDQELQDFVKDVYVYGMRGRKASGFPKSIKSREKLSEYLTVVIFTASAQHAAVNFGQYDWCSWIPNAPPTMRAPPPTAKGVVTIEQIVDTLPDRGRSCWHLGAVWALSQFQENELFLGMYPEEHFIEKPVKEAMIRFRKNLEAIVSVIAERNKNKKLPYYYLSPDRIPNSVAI
The experiment in a line: ARBL whole cell 5-lipoxygenase assay: inhibition of LTB4 formation in A23187-stimulated RBL-1 cells. The class given is cell-based. Particulars: RBL-1 whole cells; for IC50: RIA of LTB4. On the procedure:
as §1, §2, §3, §4, §5

Setting [1] is: read-out: ARBC, inhibition of PGF2α at 10 μM (class symbol).
Setting [2] is: read-out: ARBL, inhibition of LTB4 at 10 μM (class symbol).
Setting [3] is: read-out: ARBL, amount of inhibition of LTB4 at 10 μM.

Take `CC(=O)N(O)C(C)c1c(C)ccc(Nc2ccccc2-c2n[nH]c(=S)o2)c1C` (stereo not shown) [Example 9, N-[1-[3-[[2-(4,5-dihydro-5-thioxo 1,3,4-oxadiazol-2 yl)phenyl]amino]-2,6 dimethylphenyl]ethyl]-N-hydroxyacetamide]: the IC50 – broadly, the concentration that gives 50% inhibition – on cyclooxygenase is greater than 10000 nM; on 5-lipoxygenase, 5930 nM.
Consider `CCOC(=O)N(O)C(C)c1cccc(Nc2ccccc2-c2n[nH]c(=S)o2)c1Cl` (stereo not shown) [Example 11, Ethyl ester of [1-[2-chloro-3-[[2-(4,5-dihydro-5-thioxo-1,3,4 oxadiazol-2-yl)phenyl]amino]phenyl]-ethyl]hydroxycarbamic acid], for which the IC50 against cyclooxygenase amounted to 910 nM; against 5-lipoxygenase, 1140 nM.
Turning to `CC(=O)N(O)C(C)c1cccc(Nc2ccccc2-c2n[nH]c(=S)o2)c1` (stereo not shown) [Example 10, N-[1-[3-[[2-(4,5-dihydro-5-thioxo-1,3,4-oxadiazol-2-yl)phenyl]amino]phenyl]ethyl]-N-hydroxyacetamide], the inhibition at 10 µM on cyclooxygenase (setting [1]) and on 5-lipoxygenase (setting [2]) was less than 40% each time.
Turning to `CC(=O)N(O)C(C)c1cccc(Nc2ccccc2-c2n[nH]c(=S)o2)c1C` (stereo not shown) [Example 8, N-[1-[3-[[2-(4,5-dihydro-5 thioxo 1,3,4-oxadiazol-2 yl)phenyl]amino]-2 methylphenyl]ethyl]-N-hydroxyacetamide], the inhibition – broadly, the drop in the measured response relative to a control, in per cent – at 10 µM at cyclooxygenase (setting [1]) is less than 40%; on 5-lipoxygenase (setting [3]), 66%.
For the compound `CC(=O)N(O)C(C)c1cccc(Nc2ccccc2-c2n[nH]c(=S)o2)c1Cl` (stereo not shown) [Example 7, N-[1-[3-[[2-(4,5-Dihydro-5-thioxo-1,3,4 oxadiazol-2-yl)phenyl]amino]-2-chlorophenyl]ethyl]-N-hydroxy Acetamide], the values for the IC50 against cyclooxygenase and on 5-lipoxygenase were 1070 nM and 9590 nM, respectively.
Take `CC(=O)N(O)C(C)c1cccc(Nc2ccccc2-c2n[nH]c(=O)o2)c1` (stereo not shown) [Example 14, N-[1-[3-[[2-(4,5-dihydro-5-oxo-1,3,4-oxadiazol-2-yl)phenyl]amino]phenyl]ethyl]-N-hydroxyacetamide]: the inhibition at 10 µM on cyclooxygenase (setting [1]) was less than 40%; on 5-lipoxygenase (setting [3]), 100%.
Take `CC(=O)N(O)C(C)c1cccc(Nc2ccccc2-c2nnc(N)o2)c1Cl` (stereo not shown) [Example 17, N-[1-[3-[[2-(5-Amino-1,3,4-oxadiazol-2-yl)phenyl]amino]-2-chlorophenyl]ethyl]-N-hydroxyacetamide]: the results for the inhibition at 10 µM on cyclooxygenase (setting [1]) and on 5-lipoxygenase (setting [3]) were less than 40% and 100%, respectively.
With `CNC(=O)N(O)C(C)c1cccc(Nc2ccccc2-c2n[nH]c(=O)o2)c1Cl` (stereo not shown) [Example 16], the IC50 at cyclooxygenase came out at 360 nM; on 5-lipoxygenase it was 1870 nM.
As to `CCOC(=O)N(O)C(C)c1cccc(Nc2ccccc2-c2n[nH]c(=O)o2)c1Cl` (stereo not shown) [Example 15, Ethyl ester of [1-[2-chloro-3-[[2-(4,5-dihydro-5-oxo-1,3,4-voxadiazol-2-yl)phenyl]amino]phenyl]-ethyl]hydroxycarbamic acid], the IC50 at cyclooxygenase is 860 nM; against 5-lipoxygenase, 1090 nM.
`CNC(=O)N(O)C(C)c1cccc(Nc2ccccc2-c2n[nH]c(=S)o2)c1Cl` (stereo not shown) [Example 12, N-[1-[2-chloro-3-[[(4,5-dihydro-5-thioxo-1,3,4-oxadiazol-2-yl)phenyl]amino]phenyl]ethyl]-N-hydroxy-N'-methylurea]: the inhibition at 10 µM on cyclooxygenase (read-out: ARBC, amount of inhibition of PGF2α at 10 μM) was 100%; at 5-lipoxygenase (setting [2]) it was less than 40%.
Regarding `CC(=O)N(O)C(C)c1cccc(Nc2ccccc2-c2n[nH]c(=O)o2)c1Cl` (stereo not shown) [Example 13], the IC50 against cyclooxygenase worked out at 1880 nM; at 5-lipoxygenase, 680 nM.
